Laboratory results published in PMC3639963, “A New Class of Small Molecule Inhibitor of BMP Signaling” (PLoS ONE, 2013).

Columns and labels:
Assay in all cases: DSF thermal shift
Format in all cases: binding
Conditions in all cases: 10 µM inhibitor; read-out: Tm shift
[1] = biological target: T1, DRAK2 (Homo sapiens, UniProt O94768)
T1 construct: purchased Nanosyn (enzymatic panel); SGC in-house recombinant human kinases (DSF panel); Invitrogen (ALK1-6)
T1 sequence (O94768 1-372): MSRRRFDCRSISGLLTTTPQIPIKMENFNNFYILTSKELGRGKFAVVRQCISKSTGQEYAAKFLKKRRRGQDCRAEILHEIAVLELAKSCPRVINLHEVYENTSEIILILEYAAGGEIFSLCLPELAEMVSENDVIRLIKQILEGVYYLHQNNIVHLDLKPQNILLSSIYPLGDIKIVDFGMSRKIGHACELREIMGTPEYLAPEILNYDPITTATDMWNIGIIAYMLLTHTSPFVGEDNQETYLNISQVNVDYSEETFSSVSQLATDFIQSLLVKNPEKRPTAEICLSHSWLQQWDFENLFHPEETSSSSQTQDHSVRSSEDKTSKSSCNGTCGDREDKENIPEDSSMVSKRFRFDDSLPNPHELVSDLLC
Experimental: (§1) Thermal melting experiments were performed using a Real Time PCR machine Mx3005p (Stratagene) with a protein concentration of 1–2 µM and 10 µM inhibitor as described previously, [25]. […] Recombinant human kinases for DSF screening were prepared by SGC using published methods, [36].

[2] = biological target: T2, FES (Homo sapiens, UniProt P07332)
T2 construct: purchased Nanosyn (enzymatic panel); SGC in-house recombinant human kinases (DSF panel); Invitrogen (ALK1-6)
T2 sequence (P07332 whole entry): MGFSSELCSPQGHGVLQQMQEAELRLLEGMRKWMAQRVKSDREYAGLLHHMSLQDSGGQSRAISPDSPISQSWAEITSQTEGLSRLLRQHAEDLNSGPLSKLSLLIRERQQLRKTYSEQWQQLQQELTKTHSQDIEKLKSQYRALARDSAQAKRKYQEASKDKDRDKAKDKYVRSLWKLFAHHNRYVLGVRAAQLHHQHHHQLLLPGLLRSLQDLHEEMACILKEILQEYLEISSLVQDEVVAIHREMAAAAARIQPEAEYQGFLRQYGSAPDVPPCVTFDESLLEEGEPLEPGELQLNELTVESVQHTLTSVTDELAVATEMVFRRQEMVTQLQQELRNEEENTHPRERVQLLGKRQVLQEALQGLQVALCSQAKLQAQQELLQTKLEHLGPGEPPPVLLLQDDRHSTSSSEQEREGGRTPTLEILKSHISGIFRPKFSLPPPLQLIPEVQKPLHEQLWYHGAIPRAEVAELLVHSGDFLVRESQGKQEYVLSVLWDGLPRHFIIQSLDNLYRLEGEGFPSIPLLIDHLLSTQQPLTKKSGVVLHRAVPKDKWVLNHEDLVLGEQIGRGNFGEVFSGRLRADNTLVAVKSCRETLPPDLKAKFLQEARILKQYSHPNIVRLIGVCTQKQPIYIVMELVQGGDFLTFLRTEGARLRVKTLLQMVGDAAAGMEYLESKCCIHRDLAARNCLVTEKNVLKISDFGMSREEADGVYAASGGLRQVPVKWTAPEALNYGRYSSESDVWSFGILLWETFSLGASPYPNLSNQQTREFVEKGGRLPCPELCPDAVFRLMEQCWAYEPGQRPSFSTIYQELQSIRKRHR
Experimental: as §1

[3] = biological target: T3, CK1γ1 (Homo sapiens, UniProt Q9HCP0)
T3 construct: purchased Nanosyn (enzymatic panel); SGC in-house recombinant human kinases (DSF panel); Invitrogen (ALK1-6)
T3 sequence (Q9HCP0 whole entry): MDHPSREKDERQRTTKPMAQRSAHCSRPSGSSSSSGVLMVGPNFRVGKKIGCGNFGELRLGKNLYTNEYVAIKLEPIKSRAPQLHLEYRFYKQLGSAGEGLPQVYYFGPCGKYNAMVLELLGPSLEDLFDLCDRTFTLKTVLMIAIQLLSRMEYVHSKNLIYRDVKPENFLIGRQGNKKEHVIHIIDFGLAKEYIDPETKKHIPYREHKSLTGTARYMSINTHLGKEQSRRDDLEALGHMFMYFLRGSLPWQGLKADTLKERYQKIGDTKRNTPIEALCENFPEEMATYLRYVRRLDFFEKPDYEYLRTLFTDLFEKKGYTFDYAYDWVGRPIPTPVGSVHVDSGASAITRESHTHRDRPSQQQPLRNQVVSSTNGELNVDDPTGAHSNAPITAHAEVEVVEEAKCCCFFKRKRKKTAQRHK
Experimental: as §1

[4] = biological target: T4, Haspin (Homo sapiens, UniProt Q8TF76)
T4 construct: purchased Nanosyn (enzymatic panel); SGC in-house recombinant human kinases (DSF panel); Invitrogen (ALK1-6)
T4 sequence (Q8TF76 1-798): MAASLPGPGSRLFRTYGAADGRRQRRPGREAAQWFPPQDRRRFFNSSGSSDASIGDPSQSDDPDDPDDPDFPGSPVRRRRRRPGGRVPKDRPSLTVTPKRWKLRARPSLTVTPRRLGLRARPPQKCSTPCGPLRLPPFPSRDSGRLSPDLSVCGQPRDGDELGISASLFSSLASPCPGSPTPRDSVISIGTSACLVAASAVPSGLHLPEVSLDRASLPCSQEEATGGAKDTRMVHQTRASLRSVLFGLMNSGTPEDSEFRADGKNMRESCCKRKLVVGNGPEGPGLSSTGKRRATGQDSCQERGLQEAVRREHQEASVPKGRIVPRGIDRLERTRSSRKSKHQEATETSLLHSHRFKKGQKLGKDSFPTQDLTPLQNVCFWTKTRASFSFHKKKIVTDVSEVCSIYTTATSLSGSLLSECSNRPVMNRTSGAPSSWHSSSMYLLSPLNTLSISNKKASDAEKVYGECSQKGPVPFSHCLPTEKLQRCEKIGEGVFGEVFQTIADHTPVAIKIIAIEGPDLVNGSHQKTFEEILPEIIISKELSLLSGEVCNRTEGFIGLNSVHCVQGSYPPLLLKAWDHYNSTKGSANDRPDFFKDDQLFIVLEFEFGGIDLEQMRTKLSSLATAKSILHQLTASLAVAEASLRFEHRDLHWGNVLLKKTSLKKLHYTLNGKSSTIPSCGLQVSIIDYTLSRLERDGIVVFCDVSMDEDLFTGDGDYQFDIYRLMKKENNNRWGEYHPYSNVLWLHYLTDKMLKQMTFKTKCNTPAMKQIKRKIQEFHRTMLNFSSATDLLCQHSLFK
Experimental: as §1

[5] = biological target: T5, AMPKα1 (Homo sapiens, UniProt Q13131)
T5 construct: purchased Nanosyn (enzymatic panel); SGC in-house recombinant human kinases (DSF panel); Invitrogen (ALK1-6)
T5 sequence (Q13131 whole entry): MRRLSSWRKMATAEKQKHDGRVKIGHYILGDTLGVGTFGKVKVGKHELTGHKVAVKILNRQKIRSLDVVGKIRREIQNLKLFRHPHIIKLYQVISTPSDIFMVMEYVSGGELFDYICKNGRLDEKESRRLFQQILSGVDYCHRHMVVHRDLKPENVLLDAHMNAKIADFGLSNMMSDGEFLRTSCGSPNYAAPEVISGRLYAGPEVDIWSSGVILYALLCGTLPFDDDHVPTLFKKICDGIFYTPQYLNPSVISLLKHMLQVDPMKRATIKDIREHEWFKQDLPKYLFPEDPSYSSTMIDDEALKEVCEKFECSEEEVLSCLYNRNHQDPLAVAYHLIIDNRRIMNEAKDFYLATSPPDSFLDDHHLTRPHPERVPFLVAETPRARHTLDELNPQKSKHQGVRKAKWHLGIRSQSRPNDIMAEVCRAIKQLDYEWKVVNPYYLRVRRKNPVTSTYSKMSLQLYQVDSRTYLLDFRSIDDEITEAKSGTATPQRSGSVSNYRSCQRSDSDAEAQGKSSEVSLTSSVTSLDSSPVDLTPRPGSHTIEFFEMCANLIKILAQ
T5 sequence (Q9Y478 whole entry partner): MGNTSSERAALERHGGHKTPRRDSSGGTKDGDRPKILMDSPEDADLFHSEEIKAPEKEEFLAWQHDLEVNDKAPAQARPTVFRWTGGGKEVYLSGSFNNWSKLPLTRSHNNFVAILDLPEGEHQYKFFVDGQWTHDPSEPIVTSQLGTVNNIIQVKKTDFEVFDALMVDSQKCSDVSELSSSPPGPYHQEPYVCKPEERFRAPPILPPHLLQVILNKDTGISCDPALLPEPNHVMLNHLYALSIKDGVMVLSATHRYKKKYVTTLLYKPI
T5 sequence (P54619 whole entry partner): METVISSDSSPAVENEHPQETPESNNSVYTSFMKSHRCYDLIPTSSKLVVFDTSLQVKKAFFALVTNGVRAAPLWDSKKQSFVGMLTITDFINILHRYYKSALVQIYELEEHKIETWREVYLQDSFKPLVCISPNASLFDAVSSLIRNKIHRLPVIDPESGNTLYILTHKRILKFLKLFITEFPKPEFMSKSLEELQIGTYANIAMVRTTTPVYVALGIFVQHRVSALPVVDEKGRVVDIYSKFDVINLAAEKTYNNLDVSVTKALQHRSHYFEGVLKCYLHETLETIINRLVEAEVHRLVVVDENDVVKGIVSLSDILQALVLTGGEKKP
Experimental: as §1

[6] = biological target: T6, NEK11 (Homo sapiens, UniProt Q8NG66)
T6 construct: purchased Nanosyn (enzymatic panel); SGC in-house recombinant human kinases (DSF panel); Invitrogen (ALK1-6)
T6 sequence (Q8NG66 1-645): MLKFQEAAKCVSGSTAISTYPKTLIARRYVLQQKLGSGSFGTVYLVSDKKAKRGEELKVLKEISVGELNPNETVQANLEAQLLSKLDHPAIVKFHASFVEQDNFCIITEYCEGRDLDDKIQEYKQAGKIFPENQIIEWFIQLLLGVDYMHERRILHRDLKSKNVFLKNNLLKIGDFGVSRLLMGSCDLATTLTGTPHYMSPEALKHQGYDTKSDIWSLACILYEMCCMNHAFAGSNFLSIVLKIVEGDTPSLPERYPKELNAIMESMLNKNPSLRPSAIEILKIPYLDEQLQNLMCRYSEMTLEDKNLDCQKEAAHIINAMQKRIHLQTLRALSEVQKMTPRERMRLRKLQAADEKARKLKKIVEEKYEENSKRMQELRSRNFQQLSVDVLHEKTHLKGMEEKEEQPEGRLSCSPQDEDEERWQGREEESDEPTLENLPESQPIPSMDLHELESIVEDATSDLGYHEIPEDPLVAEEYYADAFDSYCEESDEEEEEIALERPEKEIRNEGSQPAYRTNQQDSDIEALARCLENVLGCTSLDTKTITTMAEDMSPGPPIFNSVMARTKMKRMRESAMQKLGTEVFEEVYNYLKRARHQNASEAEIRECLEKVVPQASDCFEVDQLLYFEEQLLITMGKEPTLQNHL
Experimental: as §1

[7] = biological target: T7, CLK4 (Homo sapiens, UniProt Q9HAZ1)
T7 construct: purchased Nanosyn (enzymatic panel); SGC in-house recombinant human kinases (DSF panel); Invitrogen (ALK1-6)
T7 sequence (Q9HAZ1 whole entry): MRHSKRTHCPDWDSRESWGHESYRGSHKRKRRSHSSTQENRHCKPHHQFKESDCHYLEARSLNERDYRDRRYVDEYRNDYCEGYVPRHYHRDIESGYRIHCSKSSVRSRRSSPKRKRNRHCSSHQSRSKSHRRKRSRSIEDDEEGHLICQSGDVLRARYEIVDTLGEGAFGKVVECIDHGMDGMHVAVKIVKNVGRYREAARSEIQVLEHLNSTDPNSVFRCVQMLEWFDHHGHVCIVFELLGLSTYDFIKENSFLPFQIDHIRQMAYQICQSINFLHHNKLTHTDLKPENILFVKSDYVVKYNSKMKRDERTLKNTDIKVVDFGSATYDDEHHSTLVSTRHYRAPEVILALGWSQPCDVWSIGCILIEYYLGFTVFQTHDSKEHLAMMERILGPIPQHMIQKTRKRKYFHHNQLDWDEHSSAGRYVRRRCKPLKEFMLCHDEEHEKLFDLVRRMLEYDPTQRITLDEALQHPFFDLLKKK
Experimental: as §1

[8] = biological target: T8, CLK3 (Homo sapiens, UniProt P49761)
T8 construct: purchased Nanosyn (enzymatic panel); SGC in-house recombinant human kinases (DSF panel); Invitrogen (ALK1-6)
T8 sequence (P49761 whole entry): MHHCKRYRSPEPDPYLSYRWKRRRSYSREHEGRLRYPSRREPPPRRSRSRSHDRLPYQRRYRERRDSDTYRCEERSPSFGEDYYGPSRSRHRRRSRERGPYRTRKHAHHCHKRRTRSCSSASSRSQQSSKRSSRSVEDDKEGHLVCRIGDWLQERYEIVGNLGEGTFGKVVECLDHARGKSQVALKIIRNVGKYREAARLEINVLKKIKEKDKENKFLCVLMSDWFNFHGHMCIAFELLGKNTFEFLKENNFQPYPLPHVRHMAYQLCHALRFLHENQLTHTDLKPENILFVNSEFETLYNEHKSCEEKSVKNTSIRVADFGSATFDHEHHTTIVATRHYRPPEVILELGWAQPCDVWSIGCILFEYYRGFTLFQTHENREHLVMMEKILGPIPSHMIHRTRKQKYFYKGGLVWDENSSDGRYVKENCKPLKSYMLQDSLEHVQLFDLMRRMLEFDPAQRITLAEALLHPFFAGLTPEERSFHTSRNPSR
Experimental: as §1

[9] = biological target: T9, CDK2 (Homo sapiens, UniProt P24941)
T9 construct: purchased Nanosyn (enzymatic panel); SGC in-house recombinant human kinases (DSF panel); Invitrogen (ALK1-6)
Experimental: as §1

[10] = biological target: T10, YANK1 (Homo sapiens, UniProt Q8WU08)
T10 construct: purchased Nanosyn (enzymatic panel); SGC in-house recombinant human kinases (DSF panel); Invitrogen (ALK1-6)
T10 sequence (Q8WU08 whole entry): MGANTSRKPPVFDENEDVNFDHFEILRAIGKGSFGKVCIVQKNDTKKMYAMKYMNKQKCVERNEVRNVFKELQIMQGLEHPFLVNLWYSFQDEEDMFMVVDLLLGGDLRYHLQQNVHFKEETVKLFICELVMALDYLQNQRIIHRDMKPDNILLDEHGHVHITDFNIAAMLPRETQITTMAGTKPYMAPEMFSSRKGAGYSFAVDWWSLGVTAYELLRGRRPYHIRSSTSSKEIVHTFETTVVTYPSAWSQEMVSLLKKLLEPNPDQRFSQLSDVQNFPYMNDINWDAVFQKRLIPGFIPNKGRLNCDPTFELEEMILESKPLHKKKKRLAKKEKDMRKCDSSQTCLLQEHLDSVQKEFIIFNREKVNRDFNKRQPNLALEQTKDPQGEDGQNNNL
Experimental: as §1

[11] = biological target: T11, MST4 (Homo sapiens, UniProt Q9P289)
T11 construct: purchased Nanosyn (enzymatic panel); SGC in-house recombinant human kinases (DSF panel); Invitrogen (ALK1-6)
T11 sequence (Q9P289 whole entry): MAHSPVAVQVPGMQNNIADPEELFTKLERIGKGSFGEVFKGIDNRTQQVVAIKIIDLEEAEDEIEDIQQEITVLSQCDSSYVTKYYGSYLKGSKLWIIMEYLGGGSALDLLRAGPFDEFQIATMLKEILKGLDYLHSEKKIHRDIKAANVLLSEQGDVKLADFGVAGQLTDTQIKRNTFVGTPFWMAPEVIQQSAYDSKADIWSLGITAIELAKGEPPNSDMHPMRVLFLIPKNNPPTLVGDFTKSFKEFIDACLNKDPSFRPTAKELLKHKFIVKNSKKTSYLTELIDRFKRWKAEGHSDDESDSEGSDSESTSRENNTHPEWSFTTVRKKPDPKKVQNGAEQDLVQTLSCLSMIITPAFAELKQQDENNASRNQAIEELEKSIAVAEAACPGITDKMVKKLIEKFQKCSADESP
Experimental: as §1

Row | ΔTm at 10 µM [1] | ΔTm at 10 µM [2] | ΔTm at 10 µM [3] | ΔTm at 10 µM [4] | ΔTm at 10 µM [5] | ΔTm at 10 µM [6] | ΔTm at 10 µM [7] | ΔTm at 10 µM [8] | ΔTm at 10 µM [9] | ΔTm at 10 µM [10] | ΔTm at 10 µM [11] | SMILES
1 | 0.6 °C | 0.4 °C | 0.7 °C | 0.3 °C | 0.2 °C | 0.3 °C | 0.3 °C | 0 °C | 0.1 °C | 0.2 °C | 0.2 °C | COc1cc(-c2cc(-c3cccc(O)c3)cnc2N)cc(OC)c1OC [K02288, 3-[6-amino-5-(3,4,5-trimethoxy-phenyl)-pyridin-3-yl]-phenol]
2 | 10 °C | 0.5 °C | 0.4 °C | 2.3 °C | 3.9 °C | 2 °C | 8.7 °C | 3.7 °C | 2.5 °C | 0.5 °C | 0.7 °C | c1cc(-c2cnn3cc(-c4ccc(OCCN5CCCCC5)cc4)cnc23)ccn1 [Dorsomorphin]

Row | SMILES | ΔTm at 10 µM [1] | ΔTm at 10 µM [2] | ΔTm at 10 µM [3] | ΔTm at 10 µM [4] | ΔTm at 10 µM [5] | ΔTm at 10 µM [6] | ΔTm at 10 µM [7] | ΔTm at 10 µM [8] | ΔTm at 10 µM [9] | ΔTm at 10 µM [10] | ΔTm at 10 µM [11]
3 | c1ccc2c(-c3cnn4cc(-c5ccc(N6CCNCC6)cc5)cnc34)ccnc2c1 [LDN-193189] | 2.1 °C | 0.4 °C | 0.3 °C | 0.4 °C | 4.3 °C | -0.3 °C | 5.3 °C | 0.7 °C | 0.7 °C | 1.2 °C | 0.8 °C
